Results reported in patent US7271162B2, “Cycloocta[b][1,4]diazepino[6,7,1-hi]indoles and derivatives” (Wyeth, priority 2000, dated 2007).
Where a name gives a salt, the structure may show the parent alone. Read-outs that look alike come from different tables or passages of the source.

Assays:
human 5-HT2C receptor = molecular target: T1, human 5-HT2C receptor (Homo sapiens, UniProt P28335); experiment: Stimulation of [3H] Inositol Monophosphate Production by 5HT2C Agonists in transfected CHO cells; conditions: read-out: 5HT2C Stimulation of IP3 % Emax (5HT, 100%)
T1 sequence (P28335 33-458): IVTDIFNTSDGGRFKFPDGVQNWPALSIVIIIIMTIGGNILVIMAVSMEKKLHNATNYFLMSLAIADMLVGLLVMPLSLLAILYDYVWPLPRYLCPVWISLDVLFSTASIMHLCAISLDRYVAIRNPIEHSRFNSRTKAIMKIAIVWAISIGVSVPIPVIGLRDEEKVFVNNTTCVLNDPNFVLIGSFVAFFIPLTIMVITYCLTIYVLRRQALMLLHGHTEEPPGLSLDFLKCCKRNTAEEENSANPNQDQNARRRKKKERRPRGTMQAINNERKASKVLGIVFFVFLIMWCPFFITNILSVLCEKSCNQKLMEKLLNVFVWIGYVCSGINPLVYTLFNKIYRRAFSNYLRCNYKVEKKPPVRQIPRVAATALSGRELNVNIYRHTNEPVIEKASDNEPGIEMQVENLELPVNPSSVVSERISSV
Method: One (1) ml of maintenance medium containing 1 μCi/ml myo-[^3H] inositol was added to each well. After 48 hours labeling, the cells were washed once with 0.5 ml DMEM containing 25 mM HEPES and 10 mM LiCl, then preincubated with the medium for 30 min (antagonists were included in this period if tested). At the end of the preincubation, the medium was removed, the cells were then incubated with test compounds (in presence of antagonists if needed) for 30 min. The reaction was terminated by removal of the incubation solution and addition of 0.5 ml ice-cold 5% PCA, followed by 15 to 30 min incubation on ice. 200 μl of 0.5 M Tes/1.5 M K2CO3 was added to each well to neutralize to pH 7, and plates were left on ice for another 15 to 30 min to precipitate all salts. The liquid and solid phases were separated by centrifugation.
A portion (350 μl) of the upper aqueous phase was applied to Dowex AG-1X8 (formate form, 100-200 mesh) columns. The columns were then washed stepwise with 10 ml of water and 10 ml of 25 mM ammonium formate to remove free myo-[^3H]inositol and deacylated phosphoinositol, respectively. Finally 10 ml of 0.2 M ammonium formate solution was applied to the columns to elute [^3H] inositol monophosphate ([^3H] IP1) directly into scintillation vials. Of this eluate, 1 ml was used to determine radioactivity by scintillation counting. […]

[1] = molecular target: T2, human 5-hydroxytryptamine2C (h5HT2C) receptor (Homo sapiens, UniProt P28335); experiment: 5HT2C Receptor Binding Test Procedure ([125I] DOI displacement, membranes of transfected CHO cells)
T2 construct: expressed in transfected cells; host or cells: CHO (Chinese Hamster Ovary) cells; membrane preparation
T2 sequence (P28335 33-458): T1 sequence (P28335 33-458)

Question: Which melting point does the source give for `c1cc2c3c(c1)c1c(n3CCNC2)CCCCCC1` (as salt: hydrochloride) [Example 1, 1,2,3,4,8,9,10,11,12,13-Decahydrocycloocta[b][1,4]diazepino[6,7,1-hi]indole] here?
Answer: 316 to 318 °C

Question: For `c1cc2c3c(c1)c1c(n3CCNC2)CCCCCC1` [Example 1, 1,2,3,4,8,9,10,11,12,13-Decahydrocycloocta[b][1,4]diazepino[6,7,1-hi]indole], which Emax (human 5-HT2C receptor) is on record?
Answer: 120%

Question: With `c1cc2c3c(c1)C1CCCCCCC1N3CCNC2` (stereo not drawn) [Example 2, 1,2,3,4,7b,8,9,10,11,12,13,13a-Dodecahydrocycloocta[b][1.4]diazepino[6,7,1-hi]indole] as the compound, how does the Ki [1] read?
Answer: 65 nM

Question: And the melting point?
Answer: 58 to 63 °C

Question: For `CSc1ccc2c(c1)C(N1CCN(C)CC1)Cc1ccccc1S2` (stereo not drawn) [Methiothepin], which Ki ([1]; reference compounds, [125I] DOI binding, h5HT2C CHO membranes, read-out: Ki value and 95% confidence interval) is on record?
Answer: 4.6 nM

Question: For `COc1cc(CC(C)N)c(OC)cc1I` (stereo not drawn) [[^125I] DOI], which Kd ([1]; read-out: dissociation constant, KD of [125I] DOI at the human serotonin 5HT2C receptor, saturation binding with increasing concentrations of [125I] DOI) is on record?
Answer: 0.4 nM
